The IC90 is the concentration at which the effect reaches the 90% level.

Structures can show the parent of a compound that is named as a salt.

The subject of the first test is Acinetobacter baumannii ATCC17961. As to the kind of experiment: 90% growth inhibitory concentration (IC90) determination, antimicrobial susceptibility testing. The class given is cell-based. The note with it: 90% growth inhibition, Iso-Sensitest broth, OD 600 nm over 16 h, 35±2° C.; read-out: ATCC 17961 IC90. An outline of the steps:
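Twofold serial dilutions (e.g. 50 to 0.097 μM final) in Iso-Sensitest broth, inoculated at ~5×10^5 CFU/ml and incubated at 35±2 °C for 16 h with OD600 read every minute. IC90 taken from growth inhibition during the logarithmic phase.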
In the case of “Methyl 2-[1-[1-(azetidin-3-ylmethyl)-1-methyl-piperidin-1-ium-4-carbonyl]-4-piperidyl]-2-[[4-[[3-(2,3-difluoro-4-methoxy-phenyl)imidazo[1,2-a]pyrazin-8-yl]amino]-2-ethyl-benzoyl]amino]acetate formate 2,2,2-trifluoroacetate (Mixed Salt) [Example 125]”, the IC90 amounted to 1.55 µM.

Staying with this test, now noted: Acinetobacter baumannii, ATCC17961, 16 h, 90% growth inhibition, Iso-Sensitest broth, OD 600 nm over 16 h, 35±2° C.; read-out: ATCC 17961 IC90.
With `CCc1cc(Nc2nccn3c(-c4ccc(OC)c(F)c4F)cnc23)ccc1C(=O)NCC1CC[N+](CC)(CC2CNC2)CC1` (stereo not shown) [Example 143, N-[[1-(Azetidin-3-ylmethyl)-1-ethyl-piperidin-1-ium-4-yl]methyl]-4-[[3-(2,3-difluoro-4-methoxy-phenyl)imidazo[1,2-a]pyrazin-8-yl]amino]-2-ethyl-benzamide Formate], the IC90 stood at 0.609 µM.

With `CCc1cc(Nc2nccn3c(-c4ccc(Oc5ccccc5)c(F)c4F)cnc23)ccc1C(=O)NCC1CC[N+](C)(CC2CCNC2)CC1` (stereo not shown) [Example 145, 4-[[3-(2,3-Difluoro-4-phenoxy-phenyl)imidazo[1,2-a]pyrazin-8-yl]amino]-2-ethyl-N-[[1-methyl-1-(pyrrolidin-3-ylmethyl)piperidin-1-ium-4-yl]methyl]benzamide Formate], the IC90 was determined as 1.78 µM.

For another test, the system named is Acinetobacter baumannii ATCC17978. The description is as above. In kind it is cell-based. Particulars: ATCC17978, 90% growth inhibition, Iso-Sensitest broth, OD 600 nm over 16 h, 35±2° C., read-out: ATCC 17978 IC90. As to the method:
Antimicrobial Susceptibility Testing:
90% Growth Inhibitory Concentration (IC90) Determination
The in vitro antimicrobial activity of the compounds was determined according to the following procedure:
The assay used a 10-points Iso-Sensitest broth medium to measure quantitatively the in vitro activity of the compounds against Acinetobacter baumannii ATCC17961 and ATCC17978.
Stock compounds in DMSO were serially twofold diluted (e.g. range from 50 to 0.097 μM final concentration) in 384 wells microtiter plates and inoculated with 49 μl the bacterial suspension in Iso-Sensitest medium to have a final cell concentration of ˜5×10^(5) CFU/ml in a final volume/well of 50 ul/well. Microtiter plates were incubated at 35±2° C.
Bacterial cell growth was determined with the measurement of optical density at λ=600 nm each minutes over a time course of 16 h. Growth inhibition was calculated during the logarithmic growth of the bacterial cells with determination of the concentration inhibiting 50% (IC50) and 90% (IC90) of the growth.
Table 1 provides the 90% growth inhibitory concentrations (IC90) in micromoles per liter of the compounds of present invention obtained against the strain Acinetobacter baumannii ATCC17978.
Consider `Cc1cc(Nc2nccn3c(-c4ccc(OC(F)F)cc4)cnc23)ccc1C(=O)NCCOCC[N+](C)(C)C` [Example 1, 2-(2-(4-((3-(4-(difluoromethoxy)phenyl)imidazo[1,2-a]pyrazin-8-yl)amino)-2-methylbenzamido)ethoxy)-N,N,N-trimethylethanaminium Iodide], for which the IC90 is 0.658 µM.

Consider `Cc1cc(Nc2nccn3c(-c4ccc(OCC#CCN)cc4)cnc23)ccc1C(=O)N(C)CCC1CC[N+](C)(C)CC1` [Example 5, 4-[[3-[4-(4-aminobut-2-ynoxy)phenyl]imidazo[1,2-a]pyrazin-8-yl]amino]-N-[2-(1,1-dimethylpiperidin-1-ium-4-yl)ethyl]-N,2-dimethyl-benzamide Formate], for which the IC90 was determined as 2.13 µM.

For `CCc1cc(Nc2nccn3c(-c4ccc(OC)c(F)c4F)cnc23)ccc1C(=O)NCCOCC[N+](C)(C)C` [Example 13, 2-(2-(4-((3-(2,3-difluoro-4-methoxyphenyl)imidazo[1,2-a]pyrazin-8-yl)amino)-2-ethylbenzamido)ethoxy)-N,N,N-trimethylethanaminium Formate], the IC90 amounted to 0.109 µM.

Turning to `COc1ccc(-c2cnc3c(Nc4ccc(C(=O)N5CCN(CC[N+](C)(C)C)CC5)c(Br)c4)nccn23)cc1F` [Example 14, 2-[4-[2-Bromo-4-[[3-(3-fluoro-4-methoxy-phenyl)imidazo[1,2-a]pyrazin-8-yl]amino]benzoyl]piperazin-1-yl]ethyl-trimethyl-ammonium 2,2,2-trifluoroacetate], the concentration for an effect of 90% (IC90) worked out at 0.476 µM.

As for `C#CCOc1ccc(-c2cnc3c(Nc4ccc(C(=O)NCCOCC[N+](C)(C)C)c(CC)c4)nccn23)c(F)c1F` [Example 15, 2-[2-[[4-[[3-(2,3-Difluoro-4-prop-2-ynoxy-phenyl)imidazo[1,2-a]pyrazin-8-yl]amino]-2-ethyl-benzoyl]amino]ethoxy]ethyl-trimethyl-ammonium 2,2,2-trifluoroacetate], the IC90 was found to be 0.238 µM.

`COc1ccc(-c2cnc3c(Nc4ccc5c(c4)CCN(CCOCC[N+](C)(C)C)C5=O)nccn23)c(F)c1F` [Example 16, 2-[2-[6-[[3-(2,3-difluoro-4-methoxy-phenyl)imidazo[1,2-a]pyrazin-8-yl]amino]-1-oxo-3,4-dihydroisoquinolin-2-yl]ethoxy]ethyl-trimethyl-ammonium Formate]: the IC90 was determined as 0.396 µM.

As for `C[N+]1(CCOCCNC(=O)c2ccc(Nc3nccn4c(-c5ccc(OCC#N)c(F)c5F)cnc34)cc2Cl)CCNC(C(=O)O)C1` (stereo not shown) [Example 17, 4-[2-[2-[[2-chloro-4-[[3-[4-(cyanomethoxy)-2,3-difluoro-phenyl]imidazo[1,2-a]pyrazin-8-yl]amino]benzoyl]amino]ethoxy]ethyl]-4-methyl-piperazin-4-ium-2-carboxylic acid Formate], the concentration for an effect of 90% (IC90) was determined as 1.29 µM.

As for `Cc1cc(Nc2nccn3c(-c4ccc(OC(F)F)cc4)cnc23)ccc1C(=O)N(C)CCC1CC[N+](C)(C)CC1` [Example 19, 4-(2-(4-((3-(4-(difluoromethoxy)phenyl)imidazo[1,2-a]pyrazin-8-yl)amino)-N,2-dimethylbenzamido)ethyl)-1,1-dimethylpiperidin-1-ium Formate], the IC90 is 0.446 µM.

Turning to `CC[N+]1(C)CCC(CCNC(=O)c2ccc(Nc3nccn4c(-c5ccc(OC)cc5)cnc34)cc2C)CC1` (stereo not shown) [Example 20, 1-ethyl-4-(2-(4-((3-(4-methoxyphenyl)imidazo[1,2-a]pyrazin-8-yl)amino)-2-methylbenzamido)ethyl)-1-methylpiperidin-1-ium Formate], the 90% effect concentration (IC90) amounted to 0.958 µM.

For the compound `COc1ccc(-c2cnc3c(Nc4ccc(C(=O)N(C)CCC5CC[N+](C)(C)CC5)c(C)c4)nccn23)c(F)c1F` [Example 22, 4-[[3-(2,3-Difluoro-4-methoxy-phenyl)imidazo[1,2-a]pyrazin-8-yl]amino]-N-[2-(1,1-dimethylpiperidin-1-ium-4-yl)ethyl]-N,2-dimethyl-benzamide 2,2,2-trifluoroacetate], the IC90 was found to be 0.26 µM.

Take `COc1ccc(-c2cnc3c(Nc4ccc(C(=O)NCCC5CC[N+](C)(CC(=O)O)CC5)c(C)c4)nccn23)cc1` (stereo not shown) [Example 23, 1-(carboxymethyl)-4-(2-(4-((3-(4-methoxyphenyl)imidazo[1,2-a]pyrazin-8-yl)amino)-2-methylbenzamido)ethyl)-1-methylpiperidin-1-ium Formate]: the 90% effect concentration (IC90) amounted to 2.22 µM.

Regarding `CC[N+]1(CC)CCC(CCN(C)C(=O)c2ccc(Nc3nccn4c(-c5ccc(OC(F)F)cc5)cnc34)cc2C)CC1` [Example 24, 4-(2-(4-((3-(4-(difluoromethoxy)phenyl)imidazo[1,2-a]pyrazin-8-yl)amino)-N,2-dimethylbenzamido)ethyl)-1,1-diethylpiperidin-1-ium Formate], the IC90 amounted to 0.742 µM.

As for `Cc1cc(Nc2nccn3c(-c4ccc(OC(F)F)cc4)cnc23)ccc1C(=O)NCCCCCC[N+](C)(C)C` [Example 25, 6-(4-((3-(4-(difluoromethoxy)phenyl)imidazo[1,2-a]pyrazin-8-yl)amino)-2-methylbenzamido)-N,N,N-trimethylhexan-1-aminium Formate], the IC90 is 0.591 µM.

In the case of `C[N+](C)(C)CCN1CCN(C(=O)c2ccc(Nc3nccn4c(-c5ccc(OCC#N)c(F)c5F)cnc34)cc2Cl)CC1` [Example 26, 2-[4-[2-chloro-4-[[3-[4-(cyanomethoxy)-2,3-difluorophenyl]imidazo[1,2-a]pyrazin-8-yl]amino]benzoyl]piperazin-1-yl]ethyl-trimethylazanium Iodide], the concentration for an effect of 90% (IC90) was 0.156 µM.

Take `COc1ccc(-c2cnc3c(Nc4ccc(C(=O)N5CCC(C(=O)NCC[N+](C)(C)C)CC5)c(C)c4)nccn23)cc1F` [Example 27, 2-(1-(4-((3-(3-Fluoro-4-methoxyphenyl)imidazo[1,2-a]pyrazin-8-yl)amino)-2-methylbenzoyl)piperidine-4-carboxamido)-N,N,N-trimethylethanaminium Formate]: the IC90 is 0.249 µM.

`CCc1cc(Nc2nccn3c(-c4ccc(Cl)c(F)c4F)cnc23)ccc1C(=O)NCCC[N+](C)(C)C` [Example 28, 3-(4-((3-(4-Chloro-2,3-difluorophenyl)imidazo[1,2-a]pyrazin-8-yl)amino)-2-ethylbenzamido)-N,N,N-trimethylpropan-1-aminium Formate]: the IC90 is 0.605 µM.

For the compound `Cc1cc(Nc2nccn3c(-c4ccc(OC(F)F)cc4)cnc23)ccc1C(=O)N1CCC(CC[N+](C)(C)C)CC1` [Example 29, 2-(1-(4-((3-(4-(Difluoromethoxy)phenyl)imidazo[1,2-a]pyrazin-8-yl)amino)-2-methylbenzoyl)piperidin-4-yl)-N,N,N-trimethylethanaminium Formate], the IC90 amounted to 0.293 µM.

The test is the same for the next values; noted with them: ATCC17978, 16 h, read-out: ATCC 17978 IC90.
For `Cc1cc(Nc2nccn3c(-c4ccc(OCC#N)c(F)c4F)cnc23)ccc1C(=O)N1CCC(CC[N+](C)(C)C)CC1` [Example 2, 2-[1-[4-[[3-[4-(Cyanomethoxy)-2,3-difluoro-phenyl]imidazo[1,2-a]pyrazin-8-yl]amino]-2-methyl-benzoyl]-4-piperidyl]ethyl-trimethyl-ammonium Formate], the IC90 amounted to 0.214 µM.

Consider `COc1ccc(-c2cnc3c(Nc4ccc(C(=O)N(C)CCN5CC[N+](C)(C)CC5)c(Cl)c4)nccn23)c(F)c1F` [Example 21, 2-chloro-4-[[3-(2,3-difluoro-4-methoxy-phenyl)imidazo[1,2-a]pyrazin-8-yl]amino]-N-[2-(4,4-dimethylpiperazin-4-ium-1-yl)ethyl]-N-methyl-benzamide 2,2,2-trifluoroacetate], for which the IC90 was 0.48 µM.

The values above are taken from patent US20230141600A1, “IMIDAZOPYRAZINE DERIVATIVES” (priority 2020, published 2023).
